Data on 23 compounds can be found in patent publication US9718792B2, “Isoxazoline hydroxamic acid derivatives as LpxC inhibitors” (priority 2014, dated 2017).

One assay has as its target P. aeruginosa LpxC (Pseudomonas aeruginosa (strain ATCC 15692 / DSM 22644 / CIP 104116 / JCM 14847 / LMG 12228 / 1C / PRS 101 / PAO1), UniProt P47205). Nature of the assay: P. aeruginosa LpxC Inhibition Assay. The note with it: 1 nM P. aeruginosa LpxC, 2 μM substrate, LC-MS/MS; read-out: PA LpxC IC50. The class given is biochemical. The gist of the method:
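Compounds pre-incubated 30 min at room temperature with 1 nM LpxC, then 2 μM UDP-3-O-(R-3-hydroxydecanoyl)-GlcNAc added; 20 min reaction in 50 mM sodium phosphate pH 7.5, 0.005% Triton X-100, quenched with HOAc. Product quantified by LC-MS/MS against calibration curve; IC50 from four-parameter logistic fit.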

The next assay has as its system P. aeruginosa PAO1. Nature of the assay: Susceptibility Testing (MIC, broth microdilution). The class given is cell-based, Pseudomonas aeruginosa. The conditions noted are these: for MIC: Pseudomonas aeruginosa, PAO1, 20 h, read-out: PAO1 MIC. The method in brief:
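Broth microdilution per CLSI in cation-adjusted Mueller-Hinton broth, inoculum ~5×10^5 CFU/mL, two-fold compound dilutions (1% DMSO final). Plates incubated 20 h in ambient air at 35° C. MIC is the lowest concentration preventing visible growth, confirmed by OD 600 nm reading.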

Where [1] appears, read: P. aeruginosa PAO1, broth microdilution, 20 hours.

Converted amounts (≈) assume the structure as drawn. Like-named read-outs stand apart in the source and are kept apart here.

Take `CC(O)C#CC#Cc1ccc(C2=NO[C@@H](C[C@](C)(C(=O)NO)S(C)(=O)=O)C2)cc1` (stereo partly drawn) [Compound 30, (2R)—N-hydroxy-3-((5R)-3-(4-(5-hydroxyhexa-1,3-diyn-1-yl)phenyl)-4,5-dihydroisoxazol-5-yl)-2-methyl-2-(methylsulfonyl)propanamide]: the IC50 on P. aeruginosa LpxC was found to be 0.5 nM. Also, the MIC in the assay on P. aeruginosa PAO1 (setting [1]) was 0.06 µg/mL (≈ 0.143 µM).

Regarding `C[C@@](C[C@H]1CC(c2ccc(C#CC3CC(CC#N)C3)cc2)=NO1)(C(=O)NO)S(C)(=O)=O` (stereo partly drawn) [Compound 55, (R)-3-((R)-3-(4-((3-(cyanomethyl)cyclobutyl)ethynyl)phenyl)-4,5-dihydroisoxazol-5-yl)-N-hydroxy-2-methyl-2-(methylsulfonyl)propanamide], the IC50 on P. aeruginosa LpxC was < 0.5 nM. For the same compound, the MIC in the assay with P. aeruginosa PAO1 (setting [1]) worked out at 0.5 µg/mL (≈ 1.13 µM).

Turning to `C[C@@](C[C@H]1CC(c2ccc(CCCF)cc2)=NO1)(C(=O)NO)S(C)(=O)=O` [Compound 33, (R)-3-((R)-3-(4-(3-fluoropropyl)phenyl)-4,5-dihydroisoxazol-5-yl)-N-hydroxy-2-methyl-2-(methylsulfonyl) propanamide], the IC50 at P. aeruginosa LpxC came to 2 nM. Also, the MIC in the assay with P. aeruginosa PAO1 was 0.5 µg/mL (≈ 1.29 µM).

Take `Cc1cc(-c2ccc(C3=NO[C@@H](C[C@](C)(C(=O)NO)S(C)(=O)=O)C3)cc2F)cc(C)n1` [Compound 118, (R)-3-((R)-3-(4-(2,6-dimethylpyridin-4-yl)-3-fluorophenyl)-4,5-dihydroisoxazol-5-yl)-N-hydroxy-2-methyl-2-(methylsulfonyl)propanamide]: on P. aeruginosa LpxC, the IC50 came to 4 nM. Also, in the assay with P. aeruginosa PAO1 (setting [1]), the MIC amounted to 4 µg/mL (≈ 8.9 µM).

In the case of `COC1CC(C#Cc2ccc(C3=NO[C@@H](C[C@](C)(C(=O)NO)S(C)(=O)=O)C3)cc2)C1` (stereo partly drawn) [Compound 44, (R)—N-hydroxy-3-((R)-3-(4-((3-methoxycyclobutyl)ethynyl)phenyl)-4,5-dihydroisoxazol-5-yl)-2-methyl-2-(methylsulfonyl)propanamide], the IC50 at P. aeruginosa LpxC was 0.8 nM. In the assay on P. aeruginosa PAO1 (setting [1]), the MIC is 0.5 µg/mL (≈ 1.15 µM).

With `COCCOc1ccc(-c2ccc(C3=NO[C@@H](C[C@](C)(C(=O)NO)S(C)(=O)=O)C3)cc2)cc1` [Compound 48, (R)—N-hydroxy-3-((R)-3-(4′-(2-methoxyethoxy)-[1,1′-biphenyl]-4-yl)-4,5-dihydroisoxazol-5-yl)-2-methyl-2-(methylsulfonyl)propanamide], the IC50 on P. aeruginosa LpxC was 1 nM. Besides, in the assay with P. aeruginosa PAO1 (setting [1]), the minimum inhibitory concentration (MIC) is 0.25 µg/mL (≈ 0.525 µM).

Consider `C[C@@](C[C@H]1CC(c2ccc(-c3ccc(CO)cc3)c(F)c2)=NO1)(C(=O)NO)S(C)(=O)=O` [Compound 103, (R)-3-((R)-3-(2-fluoro-4′-(hydroxymethyl)-[1,1′-biphenyl]-4-yl)-4,5-dihydroisoxazol-5-yl)-N-hydroxy-2-methyl-2-(methylsulfonyl)propanamide], for which the IC50 at P. aeruginosa LpxC came out at 0.6 nM. Further, the minimum inhibitory concentration (MIC) in the assay on P. aeruginosa PAO1 (setting [1]) was determined as 0.18 µg/mL (≈ 0.4 µM).

Take `COc1cc(F)c(-c2ccc(C3=NO[C@@H](C[C@](C)(C(=O)NO)S(C)(=O)=O)C3)cc2)c(F)c1` [Compound 79, (R)-3-((R)-3-(2′,6′-difluoro-4′-methoxy-[1,1′-biphenyl]-4-yl)-4,5-dihydroisoxazol-5-yl)-N-hydroxy-2-methyl-2-(methylsulfonyl)propanamide]: the IC50 at P. aeruginosa LpxC was < 0.5 nM. Also, the MIC in the assay with P. aeruginosa PAO1 (setting [1]) was determined as 0.35 µg/mL (≈ 0.747 µM).

As to `C[C@@](C[C@H]1CC(c2ccc(-c3cnccc3F)cc2)=NO1)(C(=O)NO)S(C)(=O)=O` [Compound 83, (R)-3-((R)-3-(4-(4-fluoropyridin-3-yl)phenyl)-4,5-dihydroisoxazol-5-yl)-N-hydroxy-2-methyl-2-(methylsulfonyl)propanamide], at P. aeruginosa LpxC, the IC50 is < 0.5 nM. Further, the MIC in the assay on P. aeruginosa PAO1 (setting [1]) was found to be 1 µg/mL (≈ 2.37 µM).

With `Cc1cc(C2=NO[C@@H](C[C@](C)(C(=O)NO)S(C)(=O)=O)C2)ccc1-c1ccc(C[C@@H](C)O)cc1` [Compound 121, (R)—N-hydroxy-3-((R)-3-(4′-((R)-2-hydroxypropyl)-2-methyl-[1,1′-biphenyl]-4-yl)-4,5-dihydroisoxazol-5-yl)-2-methyl-2-(methylsulfonyl)propanamide], the IC50 on P. aeruginosa LpxC is < 0.5 nM. Further, the MIC in the assay with P. aeruginosa PAO1 (setting [1]) came to 0.5 µg/mL (≈ 1.05 µM).

Turning to `CCc1ccc(C2=NO[C@@H](C[C@](C)(C(=O)NO)S(C)(=O)=O)C2)cc1F` [Compound 101, (R)-3-((R)-3-(4-ethyl-3-fluorophenyl)-4,5-dihydroisoxazol-5-yl)-N-hydroxy-2-methyl-2-(methylsulfonyl)propanamide], on P. aeruginosa LpxC, the IC50 was < 0.5 nM. Further, the MIC with P. aeruginosa PAO1 (setting [1]) came to 0.35 µg/mL (≈ 0.94 µM).

In the case of `CO[C@@H](CO)Cc1ccc(-c2ccc(C3=NO[C@@H](C[C@](C)(C(=O)NO)S(C)(=O)=O)C3)cc2)cc1` [Compound 86, (R)—N-hydroxy-3-((R)-3-(4′-((R)-3-hydroxy-2-methoxypropyl)-[1,1′-biphenyl]-4-yl)-4,5-dihydroisoxazol-5-yl)-2-methyl-2-(methylsulfonyl)propanamide], the IC50 on P. aeruginosa LpxC is < 0.5 nM. In addition, in the assay on P. aeruginosa PAO1 (setting [1]), the MIC was 0.35 µg/mL (≈ 0.713 µM).

Consider `CCSc1ccc(C2=NO[C@@H](C[C@](C)(C(=O)NO)S(C)(=O)=O)C2)cc1` [Compound 32, (R)-3-((R)-3-(4-(ethylthio)phenyl)-4,5-dihydroisoxazol-5-yl)-N-hydroxy-2-methyl-2-(methylsulfonyl)propanamide], for which the concentration for half-maximal inhibition (IC50) at P. aeruginosa LpxC came to 0.9 nM. Besides, the MIC in the assay with P. aeruginosa PAO1 (setting [1]) amounted to 0.4 µg/mL (≈ 1.03 µM).

Take `C[C@H](O)Cc1ccc(-c2ccc(C3=NO[C@@H](C[C@](C)(C(=O)NO)S(C)(=O)=O)C3)cc2)cc1` [Compound 46, (R)—N-hydroxy-3-((R)-3-(4′-((S)-2-hydroxypropyl)-[1,1′-biphenyl]-4-yl)-4,5-dihydroisoxazol-5-yl)-2-methyl-2-(methylsulfonyl)]: the IC50 at P. aeruginosa LpxC was determined as 1 nM. The MIC with P. aeruginosa PAO1 (setting [1]) amounted to 0.125 µg/mL (≈ 0.271 µM).

`CCc1ccc(C2=NO[C@@H](C[C@](C)(C(=O)NO)S(C)(=O)=O)C2)c(F)c1` [Compound 120, (R)-3-((R)-3-(4-ethyl-2-fluorophenyl)-4,5-dihydroisoxazol-5-yl)-N-hydroxy-2-methyl-2-(methylsulfonyl)propanamide]: the IC50 at P. aeruginosa LpxC came out at 0.6 nM. Further, in the assay on P. aeruginosa PAO1 (setting [1]), the MIC was 0.5 µg/mL (≈ 1.34 µM).

`COCC1CC(C#Cc2ccc(C3=NO[C@@H](C[C@](C)(C(=O)NO)S(C)(=O)=O)C3)cc2)C1` (stereo partly drawn) [Compound 53, (R)—N-hydroxy-3-((R)-3-(4-((3-(methoxymethyl)cyclobutyl)ethynyl)phenyl)-4,5-dihydroisoxazol-5-yl)-2-methyl-2-(methylsulfonyl)propanamide]: the IC50 at P. aeruginosa LpxC is 0.5 nM. Besides, the “PAO1 MIC” value in the assay on P. aeruginosa PAO1 (setting [1]) was found to be 0.5 µg/mL.

Turning to `COCC(C)(O)c1ccc(-c2ccc(C3=NO[C@@H](C[C@](C)(C(=O)NO)S(C)(=O)=O)C3)cc2)cc1` (stereo partly drawn) [Compound 51, (2R)—N-hydroxy-3-((5R)-3-(4′-(2-hydroxy-1-methoxypropan-2-yl)-[1,1′-biphenyl]-4-yl)-4,5-dihydroisoxazol-5-yl)-2-methyl-2-(methylsulfonyl)propanamide], the IC50 on P. aeruginosa LpxC was 0.8 nM. In addition, the MIC in the assay on P. aeruginosa PAO1 (setting [1]) came out at 1.4 µg/mL (≈ 2.85 µM).

Consider `C[C@@](C[C@H]1CC(c2ccc(-c3ccc(-c4nn[nH]n4)cc3)c(F)c2)=NO1)(C(=O)NO)S(C)(=O)=O` [Compound 114, (R)-3-((R)-3-(2-fluoro-4′-(2H-tetrazol-5-yl)-[1,1′-biphenyl]-4-yl)-4,5-dihydroisoxazol-5-yl)-N-hydroxy-2-methyl-2-(methylsulfonyl)propanamide], for which, on P. aeruginosa LpxC, the concentration for half-maximal inhibition (IC50) is < 0.5 nM. For the same compound, the minimum inhibitory concentration (MIC) in the assay with P. aeruginosa PAO1 (setting [1]) is 32 µg/mL (≈ 65.5 µM).

`CC#CCOc1ccc(C2=NOC(CC(C)(C(=O)NO)S(C)(=O)=O)C2)cc1` (single isomer, unassigned) [Compound 4-B, 3-(3-(4-(but-2-yn-1-yloxy)phenyl)-4,5-dihydroisoxazol-5-yl)-N-hydroxy-2-methyl-2-(methylsulfonyl)propanamide]: the 50% inhibitory concentration (IC50) on P. aeruginosa LpxC was 24 nM. For the same compound, the MIC in the assay with P. aeruginosa PAO1 came to 8 µg/mL (≈ 20.3 µM).

As for `CC(CC1CC(c2ccc(C#CC3CC3)cn2)=NO1)(C(=O)NO)S(C)(=O)=O` (single isomer, unassigned) [Compound 15-B, 3-(3-(5-(cyclopropylethynyl)pyridin-2-yl)-4,5-dihydroisoxazol-5-yl)-N-hydroxy-2-methyl-2-(methylsulfonyl)propanamide], the IC50 at P. aeruginosa LpxC amounted to 4 nM. Moreover, the MIC with P. aeruginosa PAO1 (setting [1]) was 8 µg/mL (≈ 20.4 µM).

For `CC#Cc1ccc(C2=NOC(CC(C)(C(=O)NO)S(C)(=O)=O)C2)cc1F` (single isomer, unassigned) [Compound 12-B, 3-(3-(3-fluoro-4-(prop-1-yn-1-yl)phenyl)-4,5-dihydroisoxazol-5-yl)-N-hydroxy-2-methyl-2-(methylsulfonyl)propanamide], the IC50 at P. aeruginosa LpxC was 2 nM. Also, the MIC with P. aeruginosa PAO1 (setting [1]) was found to be 2 µg/mL (≈ 5.23 µM).

Turning to `C[C@@H](O)[C@@H](O)Cc1ccc(-c2ccc(C3=NO[C@@H](C[C@](C)(C(=O)NO)S(C)(=O)=O)C3)cc2)cc1` [Compound 93, (R)-3-((R)-3-(4′-((2S,3R)-2,3-dihydroxybutyl)-[1,1′-biphenyl]-4-yl)-4,5-dihydroisoxazol-5-yl)-N-hydroxy-2-methyl-2-(methylsulfonyl) propanamide], the IC50 at P. aeruginosa LpxC was < 0.5 nM. Also, the MIC in the assay on P. aeruginosa PAO1 (setting [1]) turned out to be 2 µg/mL (≈ 4.08 µM).

Regarding `CC(C)(O)[C@H]1C[C@H](C#Cc2ccc(C3=NO[C@@H](C[C@](C)(C(=O)NO)S(C)(=O)=O)C3)cc2)C1` [Compound 39A, (R)—N-hydroxy-3-((R)-3-(4-(((1 r,3R)-3-(2-hydroxypropan-2-yl)cyclobutyl)ethynyl)phenyl)-4,5-dihydroisoxazol-5-yl)-2-methyl-2-(methylsulfonyl)propanamide], at P. aeruginosa LpxC, the IC50 is 0.5 nM. In addition, in the assay on P. aeruginosa PAO1 (setting [1]), the MIC turned out to be 0.5 µg/mL (≈ 1.08 µM).
